Results on two compounds are retold here after patent US6737421B1, “Cyclo-alkyl substituted benzimidazoles and their use as PARP inhibitors” (Abbott GmbH & Co. KG, priority 1999, dated 2004).

SMILES strings stand for the structures. Some results are limits rather than exact numbers.

Series [1] can be described thus: Determination of the solubility in water. The format is physicochemical. The note with it: adjusted to pH 5-6 with sodium acetate solution, final dimethyl sulfoxide ≦1% if not a water-soluble salt. The protocol:
EXAMPLE B Determination of the Solubility in Water […] If the measured substance is not in the form of a water-soluble salt, it was dissolved in the minimum amount of dimethyl sulfoxide and then diluted with water (final dimethyl sulfoxide concentration ≦1%), after which the pH was again adjusted.

The conditions of series [2]: literature report; cited from earlier work.

Regarding `COc1ccc(-c2nc3cccc(C(N)=O)c3[nH]2)cc1` [NU 1076], the solubility in water in series [1] was less than 0.01%. In the case of `NC(=O)c1cccc(N)c1` [3-aminobenzamide], in series [2], the “effect in a model of circulatory failure” value is on record as “protective effects”.
